Here are results for 16 molecules from US9718809B2, “Bisarylsulfonamides useful in the treatment of inflammation and cancer” (Kancera AB, priority 2011, dated 2017).

What is called pIC50 is the negative decadic logarithm of the IC50, by convention in mol/L.

pIC50: −log10 of the molar value. Counter-ions that a name gives are not always drawn.

The subject of one assay is F-2,6-P2 in PANC-1 cells. As to the kind of experiment: Quantification of F-2,6-P2 (Van Schaftingen coupled enzyme assay) in PANC-1 cells. It is filed as cell-based, human. The note with it: Homo sapiens; PANC-1 cells; read-out: IC50 based on quantification of F-2,6-P2. From the text:
A method for quantification of F-2,6-P2 has been described by Van Schaftingen et al. (1982) Eur. J. Biochem. 129, 191-5. This sensitive assay is based on the potent activation of pyrophosphate dependent phosphofructokinase-1 (PPi-PFK) from potato tubers by F-2,6-P2. The use of a series of coupled enzymes leads to a consumption of NADH (nicotinamide adenine dinucleotide) that can be followed spectrophotometrically (an updated protocol is available in Van Schaftingen, (1984) Methods of Enzymatic Analysis (Bergmeyer, H. U., ed.), 3rd edn., vol. 6, pp. 335-341, Verlag Chemie, Weinheim). A protocol for measurements in 96-well microtiter plate format is also available (Bruni et al., (1989) Anal. Biochem. 178, 324-6).
The levels of F-2,6-P2 have been determined using the van Shaftingen assay as described in the protocol below, in six different cancer cell lines endogenously expressing varying levels of the different isoforms of PFK-2/BPase-2 (MCF-7, PANC-1, NUGC-3, SW480, SW620 and MIA PaCa-2). All reagents were purchased from commercial sources or prepared in-house.
Cell line B (PANC-1, human pancreatic carcinoma cell line): PANC-1 cells (ATCC-CRL-1469), lot. no. 58564651. Cells were seeded at a concentration of ˜250 000 cells/mL in 100 μL growth medium (˜25 000 cells/well).
Growth medium (cell lines B-F): Dulbecco's Modified Eagle's Medium, DMEM, VWR, LONZ12-604F; 10% FBS, Invitrogen, 10270-106.
Starvation medium (cell lines A-F): DMEM/F12 without phenol red and glucose free, SVA, 991373; 0.25% FBS, Invitrogen, 10270-106.
Induction medium (cell lines A-F): DMEM/F12 without phenol red and glucose free, SVA, 991373; 0.25% FBS, Invitrogen, 10270-106 (same as starvation medium).
Cells were seeded in 96-well Corning Costar tissue culture plates (CLS3595, Sigma-Aldrich) using the concentrations specified above for the different cell lines A-F and incubated over night at 37° C. and 5% CO2. Row A in the plate was left empty and the cell lines added to rows B-H. Next day the growth medium was discarded and replaced with 100 μL starvation medium. The plates were incubated for 18 h at 37° C. and 5% CO2. After 18 h of starvation the cells were induced with 100 μL compound or control solutions. Compounds were either tested in two concentrations (50 μM and 10 μM) or in dose response curves starting from 50 μM. The final DMSO concentration in assay plates was 0.5%. Also a dose response curve of a reference inhibitor was included in row H on each plate. All compounds were tested in duplicate plates. Compounds (in 96 well CLS 3365, Sigma-Aldrich plates) were serial diluted in DMSO from 10 mM compound DMSO stock solutions with Janus (automated liquid handling workstation from PerkinElmer). Five μL were transferred to a Greiner deep well plate (736-0155, VWR) with 495 μL starvation medium. The final start concentration of compounds in the dilution plate was 100 μM, 1% DMSO. For compounds tested as single points, 10 mM compound solutions were diluted five fold in DMSO to 2 mM, followed by the transfer of 5 μL to separate dilution plates with 495 μL starvation medium. The final concentrations of compounds in these dilution plates were 100 or 20 μM, respectively, and final concentration of DMSO was 1%. The plates were incubated at 37° C. and 5% CO2 for 1 h, followed by the addition of 10 μL 20 mM D-glucose in starvation medium. Controls, with and without 1 mM glucose, were included in row B. The final assay volume was 210 μL per well. After 2 h of incubation at 37° C. and 5% CO2, the supernatants were discarded and the cells lysed by the addition of 25 μL 250 mM NaOH. The plates were incubated at 37° C. and 5% CO2 for 5 min followed by an addition of 75 μL MilliQ dH2O. The supernatants were further diluted with 210 μL MilliQ dH2O to a final concentration of 20 mM NaOH. 200 μL were transferred to NUNC 96-well plates (7322661, VWR) and the plates were sealed and stored at −20° C. until analysis. […]
Take `COC(=O)c1ccc(NS(=O)(=O)c2cccc(C(=O)OC(C)C)c2)cc1O` [Example 137, Methyl 2-hydroxy-4-[({3-[(1-methylethoxy)carbonyl]phenyl}sulfonyl)amino]benzoate]: the pIC50 was 4.95.

For `COC(=O)c1ccc(NS(=O)(=O)c2cc(C)c(Br)s2)cc1O` [Example 58, Methyl 4-{[(5-bromo-4-methylthiophen-2-yl)sulfonyl]amino}-2-hydroxybenzoate], the pIC50 was 5.25.

For the molecule `COC(=O)c1ccc(NS(=O)(=O)c2cccc(-c3cccc(C(=O)OC(C)C)c3)c2)cc1O` [Example 128, 1-Methylethyl 3′-{[3-hydroxy-4-(methoxycarbonyl)phenyl]sulfamoyl}biphenyl-3-carboxylate], the pIC50 is 4.88.

Turning to `COC(=O)c1ccc(NS(=O)(=O)c2cnc(Cl)c(Br)c2)cc1O` [Example 14, Methyl 4-{[(5-bromo-6-chloropyridin-3-yl)sulfonyl]amino}-2-hydroxybenzoate], the pIC50 was 5.72.

Turning to `COC(=O)c1ccc(NS(=O)(=O)c2cc(Br)c(F)cc2F)cc1O` [Example 49, Methyl 4-{[(5-bromo-2,4-difluorophenyl)sulfonyl]amino}-2-hydroxybenzoate], the pIC50 is 5.24.

Regarding `COC(=O)c1ccc(NS(=O)(=O)c2cccc3c(N(C)C)cccc23)cc1O` [Example 40, Methyl 4-({[5-(dimethylamino)naphthalen-1-yl]sulfonyl}amino)-2-hydroxybenzoate trifluoroacetate], the pIC50 is 5.68.

For the molecule `COC(=O)c1ccc(NS(=O)(=O)c2csc3ccccc23)cc1O` [Example 52, Methyl 4-[(1-benzothien-3-ylsulfonyl)amino]-2-hydroxybenzoate], the pIC50 was 4.97.

For the molecule `COC(=O)c1ccc(NS(=O)(=O)c2ccc(F)c3ccccc23)cc1O` [Example 33, Methyl 4-{[(4-fluoro-1-naphthyl)sulfonyl]amino}-2-hydroxybenzoate], the pIC50 is 5.44.

`O=C(OCCCN1CCOCC1)c1ccc(NS(=O)(=O)c2cc(Cl)cc(Cl)c2)cc1O` [Example 187, 3-Morpholin-4-ylpropyl 4-{[(3,5-dichlorophenyl)sulfonyl]amino}-2-hydroxybenzoate trifluoroacetate]: the pIC50 was 5.17.

On to `COC(=O)c1ccc(NS(=O)(=O)c2cccc(Br)c2)cc1O` [Example 5, Methyl 4-{[(3-bromophenyl)sulfonyl]amino}-2-hydroxybenzoate], for which the pIC50 is 4.91.

Consider `COC(=O)c1ccc(NS(=O)(=O)c2cc(-c3ccc(NS(C)(=O)=O)cc3)c(Cl)s2)cc1O` [Example 108, Methyl 4-{[(5-chloro-4-{4-[(methylsulfonyl)amino]phenyl}thiophen-2-yl)sulfonyl]amino}-2-hydroxybenzoate], for which the pIC50 is 5.11.

With `COC(=O)c1ccc(NS(=O)(=O)c2cccc(OC(F)(F)F)c2)cc1O` [Example 44, Methyl 2-hydroxy-4-({[3-(trifluoromethoxy)phenyl]sulfonyl}amino)benzoate], the pIC50 was 5.24.

In the case of `COCC(COC)OC(=O)c1ccc(NS(=O)(=O)c2cc(-c3cccc(F)c3)c(Cl)s2)cc1O` [Example 222, 2-Methoxy-1-(methoxymethyl)ethyl 4-({[5-chloro-4-(3-fluorophenyl)-2-thienyl]sulfonyl}amino)-2-hydroxybenzoate], the pIC50 was 5.70.

`COC(=O)c1ccc(NS(=O)(=O)c2cc(-c3cccc(N)c3)c(Cl)s2)cc1O` [Example 107, Methyl 4-({[4-(3-aminophenyl)-5-chlorothiophen-2-yl]sulfonyl}amino)-2-hydroxybenzoate trifluoroacetate]: the pIC50 was 5.55.

The same assay, now with this note: at 12.5-50 μM in PANC-1 cells.
Consider `COC(=O)c1ccc(NS(=O)(=O)c2cccc(C(C)=O)c2)cc1O` [Example 129, Methyl 4-{[(3-acetylphenyl)sulfonyl]amino}-2-hydroxybenzoate], for which the “inhibition (F-2,6-P2 levels)” value is on record as not below 50%.

As to `COC(=O)c1ccc(NS(=O)(=O)c2cccc(OC(F)F)c2)cc1O` [Example 31, Methyl 4-({[3-(difluoromethoxy)phenyl]sulfonyl}amino)-2-hydroxybenzoate], the “inhibition (F-2,6-P2 levels)” value was not below 50%.
